Experimental findings from ChEMBL document CHEMBL3091372, “Design, synthesis, and biological testing of novel naphthoquinones as substrate-based inhibitors of the quinol/fumarate reductase from Wolinella succinogenes” (J Med Chem, 2013) are described below.

For orientation: IC50 means the concentration needed to halve the response being measured.

Structures are written as SMILES. Active and inactive are the calls of the source. No cut-off for these calls is given here.

For assay [1], the system named is Wolinella succinogenes. Put plainly: Inhibition of Wolinella succinogenes quinol/fumarate reductase at 20 uM.
The subject of assay [2] is Wolinella succinogenes. Description: Inhibition of Wolinella succinogenes succinate/quinone reductase at 20 uM.
A short description of assay [3]: Inhibition of Wolinella succinogenes quinol/fumarate reductase.
Assay [4] can be described thus: Inhibition of Wolinella succinogenes succinate/quinone reductase.
Assay [5] concerns the target T1, NAD(P)H dehydrogenase [quinone] 1 (Rattus norvegicus) (UniProt P05982).
T1 sequence (whole entry): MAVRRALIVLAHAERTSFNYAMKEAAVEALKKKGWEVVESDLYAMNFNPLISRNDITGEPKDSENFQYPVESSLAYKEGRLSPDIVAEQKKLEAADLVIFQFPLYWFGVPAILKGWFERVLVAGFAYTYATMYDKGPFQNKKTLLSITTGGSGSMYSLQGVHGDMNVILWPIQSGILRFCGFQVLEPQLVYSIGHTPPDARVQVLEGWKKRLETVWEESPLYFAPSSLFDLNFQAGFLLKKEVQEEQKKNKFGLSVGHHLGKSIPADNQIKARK
Put plainly: Inhibition of rat DT-diaphorase assessed as reduction of cytochrome c at 2 uM.

As to `O=C1C=C(O)C(=O)c2ccccc21`, the “inhibition activity (active/not active)” value in the assay on Wolinella succinogenes [1] is “Active”. Besides, the “inhibition call (active/not active)” value in the assay with Wolinella succinogenes [2] was “Active”.
For the compound `CC1=C(Br)C(=O)c2ccccc2C1=O`, the results for the IC50 in assay [3] and in assay [4] were 61 nM and 1090 nM, respectively. Besides, the “inhibition activity (active/not active)” value in the assay with Wolinella succinogenes [1] is “Active”. The inhibition result in assay [5] is “inactive”. Further, in the assay with Wolinella succinogenes [2], the “inhibition call (active/not active)” value was “Active”.
Regarding `CC(C)(C)CC1=C(O)C(=O)c2ccccc2C1=O`, the “inhibition activity (active/not active)” value with Wolinella succinogenes [1] is “Active”. In addition, in the assay with Wolinella succinogenes [2], the “inhibition call (active/not active)” value is “Active”.
On to `CCCCCCCCCCCCCCC1=C(O)C(=O)c2ccccc2C1=O`, for which, in the assay with Wolinella succinogenes [1], the “inhibition activity (active/not active)” value is “Active”. For the same compound, the “inhibition call (active/not active)” value in the assay on Wolinella succinogenes [2] is “Active”.
Consider `O=C1C(O)=C(CCCC2CCCCC2)C(=O)c2ccccc21`, for which the “inhibition activity (active/not active)” value with Wolinella succinogenes [1] was “Active”. Also, the “inhibition call (active/not active)” value with Wolinella succinogenes [2] is “Active”.
For `O=C1C(O)=C(CCCCCCCCCCBr)C(=O)c2ccccc21`, in the assay with Wolinella succinogenes [1], the “inhibition activity (active/not active)” value is “inactive”. Moreover, the “inhibition call (active/not active)” value in the assay with Wolinella succinogenes [2] is “inactive”.
Regarding `CCCCCCCCCCC1=C(OC)C(=O)c2ccccc2C1=O`, in the assay on Wolinella succinogenes [1], the “inhibition activity (active/not active)” value is “Active”. Moreover, in the assay with Wolinella succinogenes [2], the “inhibition call (active/not active)” value was “Active”.
As for `CCCCCCC1=C(Br)C(=O)c2ccccc2C1=O`, the “inhibition activity (active/not active)” value in the assay with Wolinella succinogenes [1] is “Active”. Also, the “inhibition call (active/not active)” value with Wolinella succinogenes [2] is “Active”.
For the compound `CC1=C(O)C(=O)c2ccccc2C1=O`, in the assay on Wolinella succinogenes [1], the “inhibition activity (active/not active)” value is “Active”. For the same compound, the “inhibition call (active/not active)” value in the assay on Wolinella succinogenes [2] was “Active”.
Take `CCC1=C(O)C(=O)c2ccccc2C1=O`: in the assay on Wolinella succinogenes [1], the “inhibition activity (active/not active)” value was “Active”. In the assay with Wolinella succinogenes [2], the “inhibition call (active/not active)” value was “Active”.
Regarding `O=C1C(O)=C(CCCCC2CCCCC2)C(=O)c2ccccc21`, the “inhibition activity (active/not active)” value in the assay with Wolinella succinogenes [1] is “Active”. Also, in the assay on Wolinella succinogenes [2], the “inhibition call (active/not active)” value was “Active”.
Regarding `CC(C)(O)CCC1=C(O)C(=O)c2ccccc2C1=O`, the “inhibition activity (active/not active)” value in the assay with Wolinella succinogenes [1] is “inactive”. Besides, in the assay with Wolinella succinogenes [2], the “inhibition call (active/not active)” value is “inactive”.
On to `CCCCCCCCCOC1=CC(=O)C(=O)c2ccccc21`, for which the “inhibition activity (active/not active)” value in the assay with Wolinella succinogenes [1] was “inactive”. Moreover, the “inhibition call (active/not active)” value in the assay on Wolinella succinogenes [2] was “inactive”.
Consider `CCCCCCCCCCC1=C(O)C(=O)c2ccccc2C1=O`, for which, in the assay on Wolinella succinogenes [1], the “inhibition activity (active/not active)” value is “Active”. In addition, the “inhibition call (active/not active)” value in the assay on Wolinella succinogenes [2] was “Active”.
For the compound `CCC1=C(OC)C(=O)c2ccccc2C1=O`, the “inhibition activity (active/not active)” value with Wolinella succinogenes [1] is “Active”. Besides, the “inhibition call (active/not active)” value in the assay on Wolinella succinogenes [2] is “Active”.
Turning to `O=C1C(O)=C(CCCc2ccccc2)C(=O)c2ccccc21`, the “inhibition activity (active/not active)” value in the assay on Wolinella succinogenes [1] was “Active”. The “inhibition call (active/not active)” value in the assay with Wolinella succinogenes [2] is “Active”.
As for `CCCCCCC1=C(OC)C(=O)c2ccccc2C1=O`, in the assay with Wolinella succinogenes [1], the “inhibition activity (active/not active)” value is “Active”. For the same compound, in the assay on Wolinella succinogenes [2], the “inhibition call (active/not active)” value was “Active”.
For the compound `CCCCCCCCCOC1=CC(=O)c2ccccc2C1=O`, in the assay with Wolinella succinogenes [1], the “inhibition activity (active/not active)” value is “Active”. Further, the “inhibition call (active/not active)” value with Wolinella succinogenes [2] was “Active”.
Turning to `CCCCCCC1=C(O)C(=O)c2ccccc2C1=O`, in the assay on Wolinella succinogenes [1], the “inhibition activity (active/not active)” value is “Active”. The “inhibition call (active/not active)” value in the assay on Wolinella succinogenes [2] is “Active”.
For the compound `CCCCCCCCCCC1=C(Br)C(=O)c2ccccc2C1=O`, the “inhibition activity (active/not active)” value in the assay with Wolinella succinogenes [1] is “Active”. Moreover, the “inhibition call (active/not active)” value in the assay on Wolinella succinogenes [2] was “Active”.
On to `CCC1=C(Br)C(=O)c2ccccc2C1=O`, for which the IC50 came out at 612 nM in assay [3] and 604 nM in assay [4]. Moreover, the “inhibition activity (active/not active)” value in the assay with Wolinella succinogenes [1] was “Active”. Also, the inhibition entry in assay [5] is “inactive”. Besides, in the assay on Wolinella succinogenes [2], the “inhibition call (active/not active)” value was “Active”.
